How the values were obtained:
Murine Splenocytes = experiment: Cytotoxicity on uninfected ex vivo explants; type: cell-based, mouse; settings: for SIS Selectivity Index (mouse splenocytes): CC50 non-infected mouse splenocytes / EC50 amastigotes; for CC50: read-out: CC50 Murine Splenocytes, CC50 ± SD, uninfected splenocytes, 48 h
[1] = Cytotoxicity on uninfected ex vivo explants; type: cell-based, mouse; settings: mouse, uninfected ex vivo splenic explants (murine splenocytes)
[2] = tested on: L. infantum promastigotes; experiment: Promastigote in vitro assay; type: cell-based; settings: Leishmania infantum, read-out: EC50 L. infantum promastigotes
Leishmania tubulin = Leishmania tubulin (Leishmania infantum, UniProt A0A381MCS3+A4HTR0); experiment: Tubulin polymerization assay; type: biochemical, L. infantum
Leishmania tubulin, sequence (A4HTR0 1-443): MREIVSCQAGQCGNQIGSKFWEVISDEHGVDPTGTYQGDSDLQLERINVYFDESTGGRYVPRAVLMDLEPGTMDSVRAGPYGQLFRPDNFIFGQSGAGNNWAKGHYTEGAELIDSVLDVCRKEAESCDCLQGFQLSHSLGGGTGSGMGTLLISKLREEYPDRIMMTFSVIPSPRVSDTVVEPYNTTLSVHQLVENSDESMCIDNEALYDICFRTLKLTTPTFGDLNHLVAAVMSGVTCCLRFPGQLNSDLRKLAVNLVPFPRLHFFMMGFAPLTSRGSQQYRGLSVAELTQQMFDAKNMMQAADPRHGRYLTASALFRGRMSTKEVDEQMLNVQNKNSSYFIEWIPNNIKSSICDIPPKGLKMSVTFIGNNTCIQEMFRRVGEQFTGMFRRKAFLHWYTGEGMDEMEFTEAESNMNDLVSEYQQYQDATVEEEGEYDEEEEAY
Leishmania tubulin, sequence (A0A381MCS3 1-451): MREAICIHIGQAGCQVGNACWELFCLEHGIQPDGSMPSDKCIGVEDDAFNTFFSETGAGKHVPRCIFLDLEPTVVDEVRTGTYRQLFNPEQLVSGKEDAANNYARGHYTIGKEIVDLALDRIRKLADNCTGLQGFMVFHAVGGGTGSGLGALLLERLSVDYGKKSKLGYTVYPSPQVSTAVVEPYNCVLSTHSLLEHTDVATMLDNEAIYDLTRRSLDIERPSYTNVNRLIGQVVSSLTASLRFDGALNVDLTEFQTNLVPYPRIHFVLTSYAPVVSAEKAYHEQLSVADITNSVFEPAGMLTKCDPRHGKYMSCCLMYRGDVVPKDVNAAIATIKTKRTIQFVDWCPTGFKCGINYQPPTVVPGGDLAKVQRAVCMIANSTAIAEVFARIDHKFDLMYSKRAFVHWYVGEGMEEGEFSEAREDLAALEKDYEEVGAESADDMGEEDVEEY

[3] = Cytotoxicity on HepG2 cells; type: cell-based, human; settings: human, HepG2 cells (ATCC HB-8065)
Human HepG2 = experiment: Cytotoxicity on HepG2 cells; type: cell-based; settings: for SIh Selectivity Index (human HepG2): CC50 HepG2 / EC50 amastigotes; for CC50: read-out: CC50 Human HepG2, CC50 ± SD, 48 h

Row | Inhibition of tubulin polymerization (Leishmania tubulin; 25 μM, positive control) | SMILES | SIS Selectivity Index (mouse splenocytes) (Murine Splenocytes) | CC50 at 48 h [1] [µM] | EC50 [2] [µM] | IC50 Leishmania tubulin polymerization inhibition (Leishmania tubulin; IC50 ± SD, 1.2 mg/mL tubulin, 37 °C) | CC50 at 48 h [3] [µM] | SIh Selectivity Index (human HepG2) (Human HepG2) | CC50 (Murine Splenocytes) [µM] | CC50 (Human HepG2) [µM] | CC50 at 48 h ([1]; BALB/c) [µM]
1 | – | COc1cc([C@@H]2c3cc4c(cc3[C@H](O)[C@H]3COC(=O)[C@H]23)OCO4)cc(OC)c1OC [Compound 2a, podophyllotoxin] | >7.4 | > 100 | > 100 | under the μM level | 0.7 | 0.1 | – | – | –
2 | – | CCCCCCCCCCCCCCCCOP(=O)([O-])OCC[N+](C)(C)C [Miltefosine, miltefosine, reference compound] | 26.9 | 64.7 ± 7 | 5.9 ± 1.4 | – | 50.4 ± 4.3 | 21 | – | – | –
3 | – | COc1cc([C@@H]2c3cc4c(cc3[C@@H](O)[C@H]3COC(=O)[C@H]23)OCO4)cc(OC)c1OC [Compound 2b, epipodophyllotoxin] | – | > 100 | > 100 | – | 30.6 ± 2.1 | <0.3 | – | – | –
4 | – | COc1cc([C@@H]2c3cc4c(cc3C(=O)[C@H]3COC(=O)[C@H]23)OCO4)cc(OC)c1OC [Compound 3, podophyllotoxone] | <0.6 | – | – | – | – | <0.1 | 60.6 ± 7.7 | 10.3 ± 0.9 | –
5 | inhibits completely | CC[C@]1(O)C[C@@H]2CN(CCc3c([nH]c4ccccc34)[C@@](C(=O)OC)(c3cc4c(cc3OC)N(C)[C@H]3[C@@](O)(C(=O)OC)[C@H](OC(C)=O)[C@]5(CC)C=CCN6CC[C@]43[C@@H]65)C2)C1 [Vinblastine, reference compound] | – | – | – | – | – | – | – | – | –
6 | – | COc1cc([C@@H]2c3cc4c(cc3C[C@H]3COC(=O)[C@@H]32)OCO4)cc(OC)c1OC [Compound 1, deoxypodophyllotoxin] | <1.0 | – | – | – | – | – | 98.6 ± 3.1 | > 100 | –
7 | – | COC(=O)[C@@H]1C(C=O)=Cc2cc3c(cc2[C@H]1c1cc(OC)c(OC)c(OC)c1)OCO3 [Compound 14, podophyllic aldehyde] | > 10.8 | – | 89.5 ± 4.3 | – | > 100 | >10.8 | – | – | > 100

Reference: paper PMC5512185 (International Journal for Parasitology: Drugs and Drug …, 2017)
